These results are taken from patent publication US11904054B2, “Compositions and methods for delivering pharmaceutical agents” (Arizona Board of Regents on Behalf of the University of …, priority 2018, dated 2024).

Data set [1] can be described thus: Particle sizing and size distribution by image analysis of SEM micrographs. The format is physicochemical. From the text: Using conditions similar to previously reported (Li, X., et al., J Aerosol Med Pulm Drug Deliv, 2014. 27(2): p. 81-93; Li, X., et al., European Journal of Pharmaceutical Sciences, 2014. 52: p. 191-205; Meenach, S. A., et al., AAPS PharmSciTech, 2014. 15(6): p. 1574-87; Li, X., et al., Pharm Sci, 2014. 103(9): p. 2937-49; Meenach, S. A., et al., European Journal of Pharmaceutical Sciences, 2013. 49(4): p. 699-797; Muralidharan, P., et al., The Royal Society of Chemistry(RSC): Molecular Systems Design & Engineering, 2016: p. 1-18), visual imaging and analysis of particle size, morphology, and surface morphology were achieved by scanning electron microscopy (SEM) using a FEI Inspect S microscope (FBI, Brno, Czech republic). […]
The mean size, standard deviation, and size range were determined using SigmaScan™ Pro 5.0.0 (Systat, Inc., San Jose, Calif.) based on their scanning electron micrographs using a similar procedure that we have previously reported (Muralidharan et al., supra; Meenach, S. A., et al., AAPS PharmSciTech, 2014. 15(6): p. 1574-87). Representative micrographs for each particle sample at 3000× magnification was analyzed by measuring the diameter of at least 100 particles per sample.

Data set [2] is described as follows: Residual water content by Karl Fischer titration. Format: physicochemical. The note with it: Karl Fisher Titration, n = 3, Mean ± SD. The source says:
Using conditions similar to previously reported (Li, X., et al., J Aerosol Med Pulm Drug Deliv, 2014. 27(2): p. 81-93; Li, X., et al., European Journal of Pharmaceutical Sciences, 2014. 52: p. 191-205; Meenach, S. A., et al., AAPS PharmSciTech, 2014. 15(6): p. 1574-87; Li, X., et al., Pharm Sci, 2014. 103(9): p. 2937-49; Meenach, S. A., et al., European Journal of Pharmaceutical Sciences, 2013. 49(4): p. 699-797; Muralidharan, P., et al., The Royal Society of Chemistry(RSC): Molecular Systems Design & Engineering, 2016: p. 1-18), the residual water content of all SD and Co-SD powders were quantified analytically by Karl Fischer titration (KFT) coulometrically using a TitroLine 7500 trace titrator (SI Analytics, Germany).
Approximately 2-10 mg of powder was added to the titration cell containing Hydranal® Coulomat AD reagent. The residual water content was then calculated.

Another data set has as its system MCT rats. The data set is described as follows: PH development in MCT rats. Format: in vivo.

For the compound `C[N+](C)(C)C[C@H](O)CC(=O)[O-]` [Raw L-Car, L-Carnitine], the “Particle size, Range” value in data set [1] (n = 100) is on record as 298.38-1810.57 μm. For the same compound, in data set [1] (n = 100, Mean ± SD), the “Particle size, Mean” value is given as 659.05 ± 235.82 μm. Besides, in data set [2], the Water content is recorded as 2.68 ± 0.8 % (w/w). Also, in the data set on MCT rats, the PH development result was “attenuates PH development”.
`OC[C@@H](O)[C@@H](O)[C@H](O)[C@H](O)CO` [Raw Man, D-mannitol]: the Water content in data set [2] is recorded as 0.3 ± 0.13 % (w/w).
